Laboratory results from publication PMC2228302, “Crystal structure of Leishmania tarentolae hypoxanthine-guanine phosphoribosyltransferase” (BMC Structural Biology, 2007).

Molecular target: Leishmania tarentolae hypoxanthine-guanine phosphoribosyltransferase (Leishmania tarentolae)
Test: crystal structure; co-crystallized with GMP in 19% PEG 4000, 20.6% isopropanol, 5% glycerol, 95 mM tri-sodium citrate, pH 5.6; space group P212121; two monomers (chains A and B) in the asymmetric unit; 2.1 Å
Conditions: not given

Row | Compound | stoichiometry N
1 | Leishmania tarentolae hypoxanthine-guanine phosphoribosyltransferase (enzyme) | 2

Molecular target: Leishmania HGPRT (Leishmania tarentolae, UniProt Q9NJI5, D188E/G191E/H176R/L189Y/T185D/V183G/V192L/W184M)
Test: biochemical
Conditions: IC50, Leishmania HGPRT; approximate value stated in text
Experimental: The HGPRT enzyme inhibition assay was performed for 1 min in a 1 ml reaction volume containing 100 mM Tris-HCl, 5 mM MgSO4, 1 mM PRPP, 0.04 mM guanine at pH 7.4 [41]. An extinction coefficient of 4.2 was used.

Row | Compound | IC50
2 | Oc1ncnc2[nH]ncc12 [allopurinol] | ~200 µM

Same assay, conditions: IC50, recombinant L. tarentolae HGPRT; 1 min, 1 mM PRPP, 0.04 mM guanine, pH 7.4; six inhibitor concentrations in triplicate

Row | Compound | IC50
3 | Nc1nc2c(nc(N)n2[C@@H]2O[C@H](CO)[C@@H](O)[C@H]2O)c(=O)[nH]1 [8-aminoguanosine] | 94 µM
4 | O=C(O)c1cc(=O)[nH]c(=O)[nH]1 [Orotic acid] | 432 µM
5 | Oc1ncnc2[nH]ncc12 [allopurinol] | 194 µM
6 | CO/N=C(\C(=O)N[C@@H]1C(=O)N2C(C(=O)O)=C(COC(C)=O)CS[C@H]12)c1csc(N)n1 [cefotaxime] | 180 µM

Same assay, conditions: recombinant L. tarentolae HGPRT; 1 min, 1 mM PRPP, 0.04 mM guanine, pH 7.4; six inhibitor concentrations in triplicate; read-out: IC50

Row | Compound | IC50
7 | O=c1[nH]c(=O)n([C@H]2C[C@H](O)[C@@H](CO)O2)cc1Br [5-bromodeoxiuridine] | 350 µM
8 | Cc1cnc(=O)[nH]c1N [5-metilcitosine] | 412 µM
9 | Nc1nc(Cl)c2[nH]cnc2n1 [6-cloroguanine] | 838 µM
10 | O=c1[nH]cnc2c([C@@H]3O[C@H](CO)[C@@H](O)[C@H]3O)n[nH]c12 [formicin B] | 260 µM
11 | Nc1ncnc2c1ccn2[C@@H]1O[C@H](CO)[C@@H](O)[C@H]1O [tubercidine] | 533 µM
12 | azaadenine | 210 µM
